From patent US20260007673A1, “ROCK2 INHIBITORS FOR THE TREATMENT OF VIRAL INFECTIONS” (GRAVITON BIOSCIENCE BV, priority 2022, published 2026)
Entries after “also recorded” stand apart in the source; their conditions may differ.

Assays:
Calu-3 cells = experiment: Cellular toxicity: LDH assay; format: cell-based, human; details: 0.03-100 μM, LDH assay at 48 h (FIGS. 4-5)
Experimental: The toxicity of Compound 2 was measured at concentrations of 0.1, 0.3, 1, 10, 25, 50, 75, and 100 μM in Calu-3 cells by LDH ([…] dehydrogenase) assay (Clontech) according to the manufacturer's instructions. A positive control consisted of saponin (0.5%). A negative control consisted of DMSO (0.2%).

[1] = tested on: SARS-CoV-2 2019-nCoV/USA-WA1/2020 strain; experiment: Lung viral load by qPCR in infected human ACE2 transgenic mice; format: in vivo; details: mice infected with 100 or 1000 pfu; 300 mg/kg daily oral gavage; 7, 14, 21 days; vs vehicle and remdesivir (FIGS. 13-14)
SARS-CoV-2 [2] = experiment: 7-day clinical trial in patients with mild to moderate COVID-19; format: in vivo
SARS-CoV-2 [3] = experiment: In vitro SARS-CoV-2 model in immortalized human airway epithelial cells (Calu-3), viral load by qRT-PCR; format: cell-based; details: for inhibition of viral replication (viral titers): 10 μM
Experimental: A 50 mM stock solution of Compound 2 (in DMSO) was diluted using PBS to concentrations of 100, 75, 50, 25, 10, 5, 1, 0.3, 0.1, and 0.03 μM. About 30,000 immortalized human airway epithelial cells (Calu-3) (see, FIG. 1-10) or primary human airway epithelial cells (Normal Human Small Airway Epithelial Cells; Sigma) (see, FIGS. 11-12) were grown to about 100,000 cells per well in a 96-well format. The cells were challenged with 10^2 or 10^3 PFU SARS-CoV-2 (standard CDC SARS-CoV-2 strain) in triplicate and incubated for 6 h at 37° C., followed by washing. The cells were then treated with Compound 2 or negative control by adding 10 μL of a solution of Compound 2 (0.03-100 μM) or negative control solution (DMSO in PBS) in triplicate and incubating for 2 h at 37° C. A positive control consisted of remdesivir (RDV; 10 μM). An additional control (3 wells) was treated with Compound 2 at the highest concentration, but not challenged with virus. The cells were maintained until the second endpoint readout at 48 h (the first occurring at 24 h post-infection). In some instances, the cellular media was replaced 24 h after infection with untreated culture medium (“unmediated medium”) or culture medium containing the positive control (RDV) or Compound 2 (“mediated medium”), see, FIG. 10.
Viral infection/load was analyzed by qPCR (qRT-PCR). RNA from cells was extracted with TRIzol reagent (Thermo Fisher) according to manufacturer's instructions. Viral or host RNA levels in the supernatant were determined using the TaqPath™ 1-Step RT-qPCR Master Mix (Thermo Fisher) on a CFX Connect Real-Time System (Bio-Rad) instrument using the following primers: Fwd: 5′-[…]-3′; Rev. 5′-[…]-3′.
Datasets were analyzed and plotted in GraphPad Prism (version 9.0.2). Analytic simulations of dose-response curves using the median-effect principle and mass-action Law were carried out using CompuSyn (https://www.combosyn.com/).

SARS-CoV-2 [4] = experiment: In vitro SARS-CoV-2 model in primary human airway epithelial cells, viral load by qRT-PCR; format: cell-based; details: 5 μM and 25 μM, read at 24 and 48 hours (FIGS. 11-12)
Experimental: A 50 mM stock solution of Compound 2 (in DMSO) was diluted using PBS to concentrations of 100, 75, 50, 25, 10, 5, 1, 0.3, 0.1, and 0.03 μM. About 30,000 immortalized human airway epithelial cells (Calu-3) (see, FIG. 1-10) or primary human airway epithelial cells (Normal Human Small Airway Epithelial Cells; Sigma) (see, FIGS. 11-12) were grown to about 100,000 cells per well in a 96-well format. The cells were challenged with 10^2 or 10^3 PFU SARS-CoV-2 (standard CDC SARS-CoV-2 strain) in triplicate and incubated for 6 h at 37° C., followed by washing. The cells were then treated with Compound 2 or negative control by adding 10 μL of a solution of Compound 2 (0.03-100 μM) or negative control solution (DMSO in PBS) in triplicate and incubating for 2 h at 37° C. A positive control consisted of remdesivir (RDV; 10 μM). […] The cells were maintained until the second endpoint readout at 48 h (the first occurring at 24 h post-infection). […]
Viral infection/load was analyzed by qPCR (qRT-PCR). […] Viral or host RNA levels in the supernatant were determined using the TaqPath™ 1-Step RT-qPCR Master Mix (Thermo Fisher) on a CFX Connect Real-Time System (Bio-Rad) instrument using the following primers: Fwd: 5′-[…]-3′; Rev. […]
Datasets were analyzed and plotted in GraphPad Prism (version 9.0.2). […]

[5] = tested on: SARS-CoV-2 infected lung tissue; experiment: Lung fibrosis by H&E staining in infected human ACE2 transgenic mice; format: in vivo; details: infected mouse lung tissue 7, 14, 21 days after infection; vs vehicle (FIG. 16)

Cn1c(C(=O)N2CC(F)(F)C2)cc2ccc(-c3nccc(Nc4ccc(-c5cn[nH]c5)cc4)n3)cc21 [Compound 2, (6-(4-((4-(1H-pyrazol-4-yl)phenyl)amino)pyrimidin-2-yl)-1-methyl-1H-indol-2-yl)(3,3-difluoroazetidin-1-yl)methanone]
cellular toxicity by LDH (Calu-3 cells): low cellular toxicity | viral load in the lung [1]: significantly reduced viral load | clinical efficacy in treating mild to moderate COVID-19 (SARS-CoV-2 [2]; 200 mg or 400 mg once daily for 7 days plus standard of care (FIGS. 17-20)): clinical efficacy | viral titers, as negative conversion rates of SARS-CoV-2 nucleic acid detection (SARS-CoV-2 [2]; 200 mg or 400 mg once daily for 7 days, relative to Control (FIG. 18)): lower viral titers | inflammation, as levels of interleukin 6 (SARS-CoV-2 [2]; 200 mg/day and 400 mg/day (FIG. 19)): reduced levels of inflammation | inflammation, as levels of C-reactive protein (CRP) (SARS-CoV-2 [2]; 200 mg/day and 400 mg/day (FIG. 20)): reduced levels of inflammation | relief rate of sustained clinical symptoms (SARS-CoV-2 [2]; 400 mg once daily for 7 days, relative to Control and to 200 mg (FIG. 17)): substantial improvement | inhibition of viral replication (viral titers) (SARS-CoV-2 [3]; Calu-3, read at 24 and 48 hours, compared to negative control (0.1% DMSO) and positive control (RDV) (FIGS. 6-7)): inhibiting viral replication | inhibition of viral replication (viral titers) (SARS-CoV-2 [3]; Calu-3, read at 24 and 48 hours, treated 0, 2, 4, 8 h post-infection, compared to control (FIGS. 1-3)): inhibiting viral replication | dose response of inhibition of viral replication (SARS-CoV-2 [3]; Calu-3, 1, 5, 10 and 25 μM, read at 24 and 48 hours, given 0-10 h after infection (FIGS. 8A-9F)): Dose responses were observed at all time points | viral concentration after repeat dosing (SARS-CoV-2 [3]; Calu-3, 48 h after infection, medium containing compound replenished at 24 h (FIG. 10)): further decreased viral concentration | viral titers of SARS-CoV-2 (SARS-CoV-2 [3]; immortalized human airway epithelial cells infected with SARS-CoV-2, FIGS. 1-12): substantially reduce viral titers | efficacy against SARS-CoV-2 infection (viral concentration) (SARS-CoV-2 [4]): efficacy at 5 μM and 25 μM concentrations | pulmonary fibrosis (histology) [5]: reducing pulmonary fibrosis; also recorded: reduces lung fibrosis
